Assay results: patent US8148538B2, “N-alkyl-heterocyclyl carboxamide derivatives” (Bayer Cropscience AG, priority 2005, dated 2012)

How the values were obtained:
Alternaria brassicae = experiment: In vivo test on Alternaria brassicae (leaf spot of crucifers), preventive spray on radish plants; settings: under these conditions (radish plants, comparison compound of prior art)
Description: The active ingredient tested is prepared by homogenisation in DMSO (5% of the final volume), acetone (10% of the final volume) and tween 80 10% (5 μl/mg active ingredient). Radish plants (Pernot variety) in starter cups, sown on a 50/50 peat soil-pozzolana substrate and grown at 18-20° C., are treated at the cotyledon stage by spraying with the aqueous suspension described above. Plants, used as controls, are treated with an aqueous solution not containing the active material. After 24 hours, the plants are contaminated by spraying them with an aqueous suspension of Alternaria brassicae spores (40,000 spores per cm^3). The spores are collected from a 12 to 13 days-old culture. The contaminated radish plants are incubated for 6-7 days at about 18° C., under a humid atmosphere. Grading is carried out 6 to 7 days after the contamination, in comparison with the control plants. Under these conditions, good (at least 70%) or total protection is observed at a dose of 500 ppm with the following compounds: 1-2, 2-2, 2-5, 3-2, 3-5, 4-3, 4-4, 4-5, 4-6, 5-4, 5-5, 5-7, 6-1, 7-1, 7-3, 7-4, 7-6, 9-3, 10-3, 10-4, 5, 10-6, 10-8, 11-1, 11-2, 12-2, 13-1, 13-3, 13-5, 15-2, 15-3, 16-4, 19-1, 20-1, 21-1, 21-2, 22-2, 22-3, 23-1, 24-1, 24-2, 25-1, 25-3, 26-2, 27-1, 28-2, 30-1, 30-2, 31-1, 32-1 and 33-2.

Botrytis cinerea = experiment: In vivo test on Botrytis cinerea (cucumber grey mould), preventive spray on cucumber plants; settings: under these conditions (cucumber plants, comparison compounds of prior art)
Description: (§1) The active ingredient tested is prepared by homogenisation in DMSO (5% of the final volume), acetone (10% of the final volume) and tween 80 10% (5 μl/mg active ingredient).
Cucumber plants (Marketer variety) in starter cups, sown on a 50/50 peat soil-pozzolana substrate and grown at 18-20° C., are treated at the cotyledon Z11 stage by spraying with the aqueous suspension described above. Plants, used as controls, are treated with an aqueous solution not containing the active material.
After 24 hours, the plants are contaminated by depositing drops of an aqueous suspension of Botrytis cinerea spores (150,000 spores per ml) on upper surface of the leaves. The spores are collected from a 15-day-old culture and are suspended in a nutrient solution composed of: • 20 g/L of gelatin • 50 g/L of cane sugar • 2 g/L of NH4NO3 • 1 g/L of KH2PO4
The contaminated cucumber plants are settled for 5/7 days in a climatic room at 15-11° C. (day/night) and at 80% relative humidity.

Pyrenophora teres = experiment: In vivo test on Pyrenophora teres (barley net blotch), preventive spray on barley plants; settings: under these conditions (barley plants, comparison compound of prior art)
Description: as §1
Barley plants (Express variety) in starter cups, sown on a 50/50 peat soil-pozzolana substrate and grown at 12° C., are treated at the 1-leaf stage (10 cm tall) by spraying with the aqueous suspension described above. Plants, used as controls, are treated with an aqueous solution not containing the active material.
After 24 hours, the plants are contaminated by spraying them with an aqueous suspension of Pyrenophora teres spores (12,000 spores per ml). The spores are collected from a 12-day-old culture. The contaminated barley plants are incubated for 24 hours at about 20° C. and at 100% relative humidity, and then for 12 days at 80% relative humidity.

Sphaerotheca fuliginea = experiment: In vivo test on Sphaerotheca fuliginea (powdery mildew), preventive spray on gherkin plants; settings: under these conditions (gherkin plants, comparison compounds of prior art)
Description: as §1
Gherkin plants (Vert petit de Paris variety) in starter cups, sown on a 50/50 peat soil-pozzolana substrate and grown at 20° C./23° C., are treated at cotyledon Z11 stage by spraying with the aqueous suspension described above. Plants, used as controls, are treated with an aqueous solution not containing the active material.
After 24 hours, the plants are contaminated by spraying them with an aqueous suspension of Sphaerotheca fuliginea spores (100 000 spores per ml). The spores are collected from a contaminated plants. The contaminated gerkhin plants are incubated at about 20° C./25° C. and at 60/70% relative humidity.

Row | Structure (SMILES) | activity against Alternaria brassicae (Alternaria brassicae) | activity against Botrytis cinerea (Botrytis cinerea) | activity against Pyrenophora teres (Pyrenophora teres) | activity against Sphaerotheca fuliginea (Sphaerotheca fuliginea)
1 | CCCCCCCCNC(=O)c1snc(Cl)c1Cl [4-dichloro-N-octylisothiazol-5-carboxamide] | did not show any activity | did not show any activity |  | 
2 | CCC(C)NC(=O)c1cc(C)oc1C (stereo not shown) [N-sec-butyl-2,5-dimethyl-3-furamide] |  | did not show any activity | did not show any activity | did not show any activity
3 | Cc1nnsc1C(=O)NC(C)C [N-isopropyl-4-methyl-1,2,3-thiadiazole-5-carboxamide] |  | did not show any activity |  | did not show any activity
